Results: paper PMC11285769, “A pan-respiratory antiviral chemotype targeting a transient host multi-protein complex” (Open Biology, 2024)
“Also recorded” adds a separate entry of the source. Read-outs that look alike come from different tables or passages of the source.

Assays:
HRV-16 = test: HRV assay in H1-HeLa cells by TCID50; assay type: cell-based, human rhinovirus 16; conditions: Rhinovirus A
[1] = tested on: porcine epidemic diarrhoea virus (PEDV); test: PEDV pig study; assay type: in vivo; conditions: newborn pigs infected with PEDV, 4 mg kg^−1 intramuscular, relative to control
Procedure: 18 litters comprised of 91 individuals of newborn (2–4 days old) crossbred pigs weighing 3 kg were randomized to control (vehicle) or treatment groups. Animals were infected with 1 × 10^5 PFU of PEDV administered orally. Vehicle or drug was administered intramuscular at 4 mg kg^−1 immediately after challenge and again 24 h post-infection. Compound efficacy was determined by survivability. Endpoint of study was 6 days post-infection.

BoCoV BRCV-OK-0514-2 = test: microbe, parasite or virus in culture; assay type: cell-based, bovine coronavirus; conditions: Betacoronavirus 1
[2] = tested on: FLUV nucleoprotein capsid assembly; assay type: biochemical, influenza (FLUV)
FLUV A/WSN/33 = test: microbe, parasite or virus in culture; assay type: cell-based, influenza A/WSN/33; conditions: Influenza A virus, MDCK; for IC50: read-out: IC50 (figure 2a)
MHV-68 = test: microbe, parasite or virus in culture; conditions: Murine herpesvirus, BHK-21
14-3-3 zeta (YWHAZ) = 14-3-3 zeta (YWHAZ) (Homo sapiens, UniProt P63104); assay type: binding
Sequence of 14-3-3 zeta (YWHAZ) (P63104 whole entry): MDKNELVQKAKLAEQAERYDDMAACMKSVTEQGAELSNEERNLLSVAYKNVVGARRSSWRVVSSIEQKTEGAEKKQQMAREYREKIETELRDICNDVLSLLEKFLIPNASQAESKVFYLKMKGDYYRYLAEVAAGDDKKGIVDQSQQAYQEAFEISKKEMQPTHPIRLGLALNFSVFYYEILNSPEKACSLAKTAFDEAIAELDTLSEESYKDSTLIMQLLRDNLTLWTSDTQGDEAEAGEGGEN

Nipah virus rNiV-ZsG = test: microbe, parasite or virus in culture; assay type: cell-based
[3] = tested on: human cytomegalovirus strain AD69; test: microbe, parasite or virus in culture; assay type: cell-based; conditions: Human betaherpesvirus 5, H1-HeLa, read-out: PAV-431 EC50
bovine coronavirus = test: microbe, parasite or virus in culture; assay type: cell-based; conditions: Betacoronavirus 1, read-out: PAV-431 EC50
SARS-CoV-2 WA1/2020 = test: microbe, parasite or virus in culture; assay type: cell-based
in vivo = conditions: rat
RSV A-2 virus = test: RSV cotton rat study; assay type: in vivo; conditions: cotton rats, 2 mg kg^−1 IP twice daily, days −1 to 4, plaque assay
Procedure: Female cotton rats, approximately 5 weeks of age, were obtained from Envigo (formerly Harlan), ear-tagged for identification purposes, and allowed to acclimate for >1 week prior to study start. Animals were housed individually. Vehicle or drug (2 mg kg^−1) was administered by an intraperitoneal route twice daily on study days −1 through day 4. On day 0, animals were infected with 1 × 10^5 PFU of RSV A-2 virus originally obtained from ATCC (VR-1540), administered in a 50 µl volume by an intranasal route approximately 2 h after the morning treatment dose. Back titration of the viral stock and diluted inoculum was performed to confirm the titre of the RSV stock used for infection. All inoculations were performed while the animals were under the influence of inhalant anaesthesia. All animals were euthanized on day 5 and the lungs were processed for determination of RSV titres by plaque assay.

[4] = tested on: respiratory synctial virus straine A-2; test: microbe, parasite or virus in culture; assay type: cell-based; conditions: human respiratory syncytial virus, HEp-2, read-out: PAV-431 EC50
rabies virus CVS-11 = test: microbe, parasite or virus in culture; assay type: cell-based
[5] = tested on: adenovirus serotype 5 strain adenoid 65; test: microbe, parasite or virus in culture; assay type: cell-based; conditions: unidentified adenovirus, A549, read-out: PAV-431 EC50
[6] = rat, in vivo
p62/SQSTM1 = assay type: cell-based
[7] = Pharmacokinetics, tissue uptake and safety in rats; conditions: 5 mg kg^−1 IP
hERG channel = hERG channel (Homo sapiens, UniProt Q12809); test: hERG channel inhibition
Sequence of hERG channel (Q12809 whole entry): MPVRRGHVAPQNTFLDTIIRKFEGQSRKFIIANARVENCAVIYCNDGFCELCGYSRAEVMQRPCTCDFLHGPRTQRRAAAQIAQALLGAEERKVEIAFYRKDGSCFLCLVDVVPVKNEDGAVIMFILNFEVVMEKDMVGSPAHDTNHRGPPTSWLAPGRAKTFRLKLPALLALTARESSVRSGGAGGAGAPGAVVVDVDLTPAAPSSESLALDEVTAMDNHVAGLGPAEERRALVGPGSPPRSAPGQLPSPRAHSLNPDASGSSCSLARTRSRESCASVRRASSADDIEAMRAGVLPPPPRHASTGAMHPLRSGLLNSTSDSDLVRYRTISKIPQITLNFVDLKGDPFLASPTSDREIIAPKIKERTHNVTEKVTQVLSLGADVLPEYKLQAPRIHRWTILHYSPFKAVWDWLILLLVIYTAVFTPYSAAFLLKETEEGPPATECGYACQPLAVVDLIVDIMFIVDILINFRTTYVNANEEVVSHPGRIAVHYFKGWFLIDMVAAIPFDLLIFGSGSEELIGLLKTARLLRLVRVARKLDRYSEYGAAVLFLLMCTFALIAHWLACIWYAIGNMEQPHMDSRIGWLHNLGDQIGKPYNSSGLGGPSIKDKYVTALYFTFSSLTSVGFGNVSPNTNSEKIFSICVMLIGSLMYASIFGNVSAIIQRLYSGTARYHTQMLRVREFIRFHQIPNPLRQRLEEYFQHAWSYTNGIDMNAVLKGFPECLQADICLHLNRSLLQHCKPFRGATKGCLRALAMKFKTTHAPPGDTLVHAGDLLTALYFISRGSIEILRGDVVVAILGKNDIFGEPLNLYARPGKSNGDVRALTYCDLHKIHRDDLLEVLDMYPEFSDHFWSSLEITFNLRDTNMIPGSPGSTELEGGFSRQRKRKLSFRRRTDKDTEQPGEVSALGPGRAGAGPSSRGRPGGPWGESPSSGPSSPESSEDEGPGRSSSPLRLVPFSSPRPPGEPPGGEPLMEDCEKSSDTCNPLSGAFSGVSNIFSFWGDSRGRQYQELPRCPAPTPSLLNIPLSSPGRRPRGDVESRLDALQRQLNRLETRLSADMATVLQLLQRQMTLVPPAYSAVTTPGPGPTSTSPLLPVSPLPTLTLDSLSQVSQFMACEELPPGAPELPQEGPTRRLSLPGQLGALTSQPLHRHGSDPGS

[8] = tested on: members of Orthomyxoviridae, Coronaviridae, Paramyxoviridae, Adenoviridae, Herpesviridae and Picornaviridae; test: microbe, parasite or virus in culture; assay type: cell-based; conditions: Orthoherpesviridae, read-out: EC50 across six respiratory viral families
[9] = tested on: swine influenza virus SIC/SK WT; test: microbe, parasite or virus in culture; assay type: cell-based; conditions: MDCK, read-out: PAV-431 EC50
5-HT2B = 5-HT2B (Homo sapiens, UniProt P41595); test: CEREP panel off-target: 5-HT2B; conditions: high concentrations
Sequence of 5-HT2B (P41595 whole entry, species assumed): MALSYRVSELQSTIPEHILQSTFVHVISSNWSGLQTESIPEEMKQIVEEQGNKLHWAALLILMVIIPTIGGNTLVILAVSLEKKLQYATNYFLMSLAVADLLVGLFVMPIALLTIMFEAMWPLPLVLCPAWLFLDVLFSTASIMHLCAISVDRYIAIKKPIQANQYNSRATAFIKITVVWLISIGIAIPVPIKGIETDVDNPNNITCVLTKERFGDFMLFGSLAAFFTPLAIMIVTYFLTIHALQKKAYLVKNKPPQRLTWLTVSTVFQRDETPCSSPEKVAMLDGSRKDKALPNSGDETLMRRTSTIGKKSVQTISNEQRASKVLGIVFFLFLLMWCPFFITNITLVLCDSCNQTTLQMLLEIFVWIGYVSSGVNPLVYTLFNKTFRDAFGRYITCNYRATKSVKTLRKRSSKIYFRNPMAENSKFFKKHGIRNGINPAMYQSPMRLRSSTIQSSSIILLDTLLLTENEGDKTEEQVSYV

[10] = HRV16, HRV-16, MOI = 5, H1-HeLa cells, TCID50, read-out: EC50
[11] = read-out: EC50 against infectious FLUV

COc1cccc(CNC(=O)c2cc(C3CC3)nn2C)c1OC [PAV-835]
EC50 (HRV-16; [10]): < 1000 nM | likelihood of survival [1]: significantly increased the likelihood of survival | EC50 (BoCoV BRCV-OK-0514-2): < 1000 nM | assembly of FLUV nucleoprotein into a completed capsid [2]: blocked assembly of FLUV nucleoprotein into a completed capsid in a dose-dependent manner | EC50 (FLUV A/WSN/33): < 1000 nM | EC50 (FLUV A/WSN/33; [11]): 42 nM | IC50 (FLUV A/WSN/33): 14.8 nM | EC50 (MHV-68): < 1000 nM

COc1c(CNC(=O)c2cc(C3CC3)nn2C)cccc1OC(F)(F)F [PAV-431]
EC50 (HRV-16; HRV16, H1-HeLa, read-out: PAV-431 EC50): < 20 nM | 14-3-3 binding from PAV-104 resin flowthrough (14-3-3 zeta (YWHAZ)): a substantial amount of the 14-3-3 in the PAV-104 resin flowthrough bound to the PAV-431 resin | activity against Nipah virus (Nipah virus rNiV-ZsG): comparably potent | EC50 (Nipah virus rNiV-ZsG; Henipavirus nipahense, read-out: PAV-431 EC50): ≤ 50 nM | EC50 [3]: 25 nM | EC50 (bovine coronavirus): 50 nM | efficacy against SARS-CoV-2 WA 1/2020 (SARS-CoV-2 WA1/2020): significant efficacy | EC50 (SARS-CoV-2 WA1/2020; Severe acute respiratory syndrome coronavirus 2, Vero C1008, read-out: PAV-431 EC50): 100 nM | bioavailability (in vivo): 59% | RSV titre in lungs relative to vehicle (RSV A-2 virus): significant drop in viral titre; also recorded: small but statistically significant drop in RSV titre | EC50 [4]: < 25 nM | activity against rabies virus (rabies virus CVS-11): did not show significant activity against rabies virus | EC50 (rabies virus CVS-11; Rabies virus CVS-11, read-out: PAV-431 EC50): > 400 nM | EC50 [5]: < 100 nM | clearance [6]: quick clearing tendency | distribution in brain [6]: good distribution in brain and lungs | distribution in lungs [6]: good distribution in brain and lungs | distribution in plasma [6]: good distribution in plasma | volume of distribution [6]: better volume of distribution than PAV-104 | concentration in lungs ([6]; ip): 167 nM | concentration in plasma ([6]; ip): 108 nM | levels obtained, oral route ([6]; po): too low to analyse the PK properties | amount of p62 in eluate (p62/SQSTM1): restored with PAV-431 treatment | safety of dose [7]: found to be safe | hERG channel inhibition (hERG channel): negative for hERG channel inhibition | EC50 [8]: ≤ 100 nM | EC50 [9]: 25 nM | off-target effect at 5-HT2B (5-HT2B): potential off-target effects at high concentrations could be relevant | EC50 (FLUV A/WSN/33; read-out: PAV-431 EC50): 25 nM

COc1cccc(CNC(=O)c2cc(C(C)(C)C)nn2C)c1OC [PAV-773]
EC50 (HRV-16; [10]): < 1000 nM | likelihood of survival [1]: significantly increased the likelihood of survival | EC50 (BoCoV BRCV-OK-0514-2): < 1000 nM | assembly of FLUV nucleoprotein into a completed capsid [2]: blocked assembly of FLUV nucleoprotein into a completed capsid in a dose-dependent manner | EC50 (FLUV A/WSN/33): < 1000 nM | EC50 (FLUV A/WSN/33; [11]): 177 nM | IC50 (FLUV A/WSN/33): 176 nM | EC50 (MHV-68): < 1000 nM
